Consider two compounds from article PMC9760430, “A stapled chromogranin A-derived peptide homes in on tumors that express αvβ6 or αvβ8 integrins” (International Journal of Biological Sciences, 2023).

For one test, the target named is T1, Human αvβ6 (Homo sapiens, UniProt P06756+P18564).
T1 construct: purchased Bio-Techne
The experiment in a line: direct integrin binding assay of peptide-IRDye conjugates, human αvβ6-coated plates. The following applies: plates coated with recombinant human αvβ6; conjugate 0.01-100 nM, 1 h; bound NIR fluorescence (Odyssey CLx); mean ± SE, n = 2 experiments. As for the experimental part:
(§1) The affinity of peptide-IRDye conjugates for αvβ6 and αvβ8 integrins was determined by a direct binding assay using microtiter plates coated with αvβ6 or αvβ8 (Bio-Techne). After 1 h of incubation, the plates were washed; bound fluorescence was quantified by scanning the plates with an Odyssey CLx near-infrared fluorescence imaging system (LI-COR). […]
(§2) The simplified molecular-input line-entry system (SMILES) of 5a-, 2a-, Cys- and 5a-Scr- […]
(§3) The concentration of each conjugate was quantified by spectrophotometric analysis at 774 nm (molar absorption coefficient, 240,000 M-1, cm-1) (Figure S3B). The final yield of 5a-IRDye […]
(§4) Binding of peptide-IRDye conjugates to avb6 and avb8 integrin
(§5) The binding affinity of peptide-IRDye conjugates for human and murine avb6 and avb8 integrins was determined as follows: 96-well clear-bottom black microtiter plates (Corning® cat. 3601) were coated with 2 μg/ml avb6 or avb8 (50 µl/well), in Dulbecco’s phosphate-buffered saline containing Ca2+ and Mg2+ (DPBS) and left to incubate overnight at 4°C. […]
(§6) conjugates were added to the microtiterplates and incubated at room temperature for 1 h (see Experimental Section). After washing, bound fluorescence was measured using an Odyssey CLx (LI-COR) scanner. Representative images of the scanned plates and quantification of binding are shown. […]

Another test concerns the target T2, Human αvβ8 (Homo sapiens, UniProt P06756+P26012).
T2 construct: purchased Bio-Techne
Put plainly: direct integrin binding assay of peptide-IRDye conjugates, human αvβ8-coated plates. The following applies: plates coated with recombinant human αvβ8; conjugate 0.01-100 nM, 1 h; bound NIR fluorescence; mean ± SE, n = 2 experiments. As for the experimental part:
as §1, §2, §3, §4, §5, §6

Peptide text beside a SMILES is read from it. * marks the point of attachment. X1 = CC1(C)C(/C=C/C2=C(Oc3ccc(S(=O)(=O)O)cc3)C(=C\C=C3/N(CCCCCC(=O)NCCN4C(=O)CC(*)C4=O)c4ccc(S(=O)(=O)O)cc4C3(C)C)/CCC2)=[N+](CCCCS(=O)(=O)O)c2ccc(S(=O)(=O)[O-])cc21

T2 sequence (P06756 31-992 limits assumed): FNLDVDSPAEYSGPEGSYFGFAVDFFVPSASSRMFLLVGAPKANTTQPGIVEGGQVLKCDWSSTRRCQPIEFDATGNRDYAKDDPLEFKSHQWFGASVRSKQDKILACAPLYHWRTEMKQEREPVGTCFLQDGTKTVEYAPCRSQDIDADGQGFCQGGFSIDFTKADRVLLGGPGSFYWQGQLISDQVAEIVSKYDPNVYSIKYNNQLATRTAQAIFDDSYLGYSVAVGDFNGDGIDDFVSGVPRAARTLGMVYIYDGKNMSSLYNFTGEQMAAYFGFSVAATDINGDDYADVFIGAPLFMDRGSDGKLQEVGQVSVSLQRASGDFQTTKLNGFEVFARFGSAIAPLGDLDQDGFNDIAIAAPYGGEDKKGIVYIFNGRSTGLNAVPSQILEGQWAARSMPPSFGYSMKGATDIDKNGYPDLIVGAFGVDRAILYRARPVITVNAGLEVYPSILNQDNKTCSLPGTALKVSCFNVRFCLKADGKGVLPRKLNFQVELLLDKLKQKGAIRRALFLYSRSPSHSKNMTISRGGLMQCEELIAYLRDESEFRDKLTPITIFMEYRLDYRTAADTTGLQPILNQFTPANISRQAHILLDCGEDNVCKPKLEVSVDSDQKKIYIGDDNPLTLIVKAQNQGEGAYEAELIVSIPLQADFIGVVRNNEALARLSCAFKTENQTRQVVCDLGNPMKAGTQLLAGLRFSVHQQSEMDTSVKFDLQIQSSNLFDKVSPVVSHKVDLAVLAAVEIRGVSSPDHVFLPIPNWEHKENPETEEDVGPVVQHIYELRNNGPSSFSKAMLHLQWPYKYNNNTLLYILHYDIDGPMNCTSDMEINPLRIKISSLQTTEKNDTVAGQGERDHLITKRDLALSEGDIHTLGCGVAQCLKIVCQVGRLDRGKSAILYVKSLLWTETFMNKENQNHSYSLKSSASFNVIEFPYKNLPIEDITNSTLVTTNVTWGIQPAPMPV
T2 sequence (P26012 43-684 limits assumed): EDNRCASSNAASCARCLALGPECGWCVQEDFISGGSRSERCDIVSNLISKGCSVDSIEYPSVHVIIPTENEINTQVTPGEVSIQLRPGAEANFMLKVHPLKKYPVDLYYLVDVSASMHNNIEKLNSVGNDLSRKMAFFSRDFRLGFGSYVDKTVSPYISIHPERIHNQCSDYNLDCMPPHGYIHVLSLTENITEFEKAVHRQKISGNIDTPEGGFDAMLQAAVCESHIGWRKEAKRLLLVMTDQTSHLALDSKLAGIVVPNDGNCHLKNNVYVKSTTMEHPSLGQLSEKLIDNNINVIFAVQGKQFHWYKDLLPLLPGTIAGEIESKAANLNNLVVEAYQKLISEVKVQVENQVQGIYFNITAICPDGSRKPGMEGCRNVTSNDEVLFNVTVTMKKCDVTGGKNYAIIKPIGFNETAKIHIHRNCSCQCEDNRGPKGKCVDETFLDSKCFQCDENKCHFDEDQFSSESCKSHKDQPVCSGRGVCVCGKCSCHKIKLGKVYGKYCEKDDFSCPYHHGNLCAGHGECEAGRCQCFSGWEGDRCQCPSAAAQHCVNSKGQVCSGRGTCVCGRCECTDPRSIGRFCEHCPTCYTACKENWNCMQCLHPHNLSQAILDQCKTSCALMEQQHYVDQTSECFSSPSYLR
T1 sequence (P06756 31-992 limits assumed): as the sequence (P06756 31-992 limits assumed) above
T1 sequence (P18564 22-707 limits assumed): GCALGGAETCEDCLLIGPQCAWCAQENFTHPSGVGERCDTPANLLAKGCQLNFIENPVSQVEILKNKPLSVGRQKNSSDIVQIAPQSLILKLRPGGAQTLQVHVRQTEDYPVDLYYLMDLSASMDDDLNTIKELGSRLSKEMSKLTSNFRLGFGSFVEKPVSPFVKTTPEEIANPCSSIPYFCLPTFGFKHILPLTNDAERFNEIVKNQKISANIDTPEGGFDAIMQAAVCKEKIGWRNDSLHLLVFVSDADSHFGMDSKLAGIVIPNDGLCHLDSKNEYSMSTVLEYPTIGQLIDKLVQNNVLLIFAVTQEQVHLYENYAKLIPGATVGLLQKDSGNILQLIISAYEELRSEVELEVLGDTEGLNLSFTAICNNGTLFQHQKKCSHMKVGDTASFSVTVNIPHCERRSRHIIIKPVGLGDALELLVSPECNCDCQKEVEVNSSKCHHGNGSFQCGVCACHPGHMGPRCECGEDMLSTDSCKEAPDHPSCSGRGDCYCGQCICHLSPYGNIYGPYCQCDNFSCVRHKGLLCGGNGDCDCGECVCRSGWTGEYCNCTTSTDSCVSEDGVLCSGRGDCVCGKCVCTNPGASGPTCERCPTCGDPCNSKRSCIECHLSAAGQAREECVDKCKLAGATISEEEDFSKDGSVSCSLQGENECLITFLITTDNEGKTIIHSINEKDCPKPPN

In general, EC50 refers to the concentration needed to bring the measured effect to its halfway point. As to `CC[C@H](C)[C@H](NC(=O)[C@H](CCCNC(=N)N)NC(=O)[C@H](CCC(=O)O)NC(=O)[C@H](CCC(=O)O)NC(=O)CNC(=O)[C@H](CCCNC(=N)N)NC(=O)[C@H](CC(C)C)NC(=O)[C@@H](NC(=O)[C@H](CCC(=O)O)NC(=O)[C@H](Cc1ccccc1)NC(=O)[C@@H](N)CSC1CC(=O)N(CCNC(=O)CCCCCN2/C(=C\C=C3\CCCC(/C=C/C4=[N+](CCCCS(=O)(=O)O)c5ccc(S(=O)(=O)[O-])cc5C4(C)C)=C3Oc3ccc(S(=O)(=O)O)cc3)C(C)(C)c3cc(S(=O)(=O)O)ccc32)C1=O)[C@@H](C)O)C(=O)N[C@@H](CC(C)C)C(=O)N[C@@H](CO)C(=O)N[C@H](C(=O)N[C@@H](CC(C)C)C(=O)N[C@@H](CCCNC(=N)N)C(=O)N[C@@H](Cc1c[nH]cn1)C(=O)N[C@@H](CCC(N)=O)C(=O)N[C@@H](CC(N)=O)C(=O)N[C@@H](CC(C)C)C(=O)N[C@@H](CC(C)C)C(=O)N[C@@H](CCCCN)C(=O)N[C@@H](CCC(=O)O)C(=O)N[C@@H](CC(C)C)C(=O)N[C@@H](CCC(N)=O)C(=O)N[C@@H](CC(=O)O)C(N)=O)[C@@H](C)CC` (stereo partly shown) [2a-IRDye] (H-C(X1)FETLRGEERILSILRHQNLLKELQD-NH2), the concentration giving a half-maximal response (EC50) at Human αvβ6 and at Human αvβ8 was greater than 100 nM in each case.

Take `CC1(C)C(/C=C/C2=C(Oc3ccc(S(=O)(=O)O)cc3)C(=C\C=C3/N(CCCCCC(=O)NCCN4C(=O)CC(SC[C@H](N)C(=O)O)C4=O)c4ccc(S(=O)(=O)O)cc4C3(C)C)/CCC2)=[N+](CCCCS(=O)(=O)O)c2ccc(S(=O)(=O)[O-])cc21` (stereo partly shown) [Cys-IRDye]: the EC50 on Human αvβ6 and on Human αvβ8 was greater than 100 nM each time.
